According to patent US20210380606A1, “5-AZAINDAZOLE DERIVATIVES AS ADENOSINE RECEPTOR ANTAGONISTS” (Merck Patent GmbH, priority 2018, published 2021):

Columns and labels:
human A2A receptors = biological target: T1, human A2A receptors (Homo sapiens, UniProt P29274); experiment: Functional human A2A receptor activity, recombinant HEK293 cells, cAMP (HTRF); format: cell-based; details: read-out: A2A (Category)
T1 construct: expressed in transfected cells; host or cells: HEK293
Method in brief: (§1)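 cAMP accumulation, determined by HTRF after a 15 min incubation, served as the functional measure of receptor activity.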

human A2B receptors = biological target: T2, human A2B receptors (Homo sapiens, UniProt P29275); experiment: Functional human A2B receptor activity, recombinant HEK293 cells, cAMP (HTRF); format: cell-based; details: read-out: A2B (Category)
T2 construct: expressed in transfected cells; host or cells: HEK293
T2 sequence (P29275 1-332): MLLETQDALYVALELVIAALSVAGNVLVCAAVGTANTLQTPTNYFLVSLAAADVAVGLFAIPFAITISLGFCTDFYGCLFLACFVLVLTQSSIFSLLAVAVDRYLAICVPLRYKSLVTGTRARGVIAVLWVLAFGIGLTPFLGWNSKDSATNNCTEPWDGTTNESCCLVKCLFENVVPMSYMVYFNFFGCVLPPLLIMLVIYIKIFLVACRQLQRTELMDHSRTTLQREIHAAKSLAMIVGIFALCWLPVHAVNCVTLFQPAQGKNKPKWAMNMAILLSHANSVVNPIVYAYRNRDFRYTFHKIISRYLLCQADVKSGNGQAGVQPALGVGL
Method in brief: as §1

T1 sequence (P29274 whole entry): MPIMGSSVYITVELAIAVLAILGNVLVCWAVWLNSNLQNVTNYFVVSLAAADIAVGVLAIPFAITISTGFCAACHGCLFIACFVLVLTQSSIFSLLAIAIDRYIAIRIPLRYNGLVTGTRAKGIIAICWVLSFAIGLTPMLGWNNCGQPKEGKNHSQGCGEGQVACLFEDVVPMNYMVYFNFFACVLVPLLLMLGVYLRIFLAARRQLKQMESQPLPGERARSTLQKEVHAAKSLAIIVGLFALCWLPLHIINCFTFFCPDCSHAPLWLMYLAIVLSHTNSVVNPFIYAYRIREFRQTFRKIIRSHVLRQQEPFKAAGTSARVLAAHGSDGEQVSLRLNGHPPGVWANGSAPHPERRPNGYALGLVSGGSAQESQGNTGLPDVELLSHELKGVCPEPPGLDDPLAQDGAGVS

Row | IC50 (human A2A receptors) | IC50 (human A2B receptors) | Compound
1 | < 100 nM | < 1000 nM | O=C1CN(C(=O)c2cc3c(cn2)c(-c2cnc4c(F)cc(F)cn24)nn3CC(F)(F)F)CCCN1 [Compound 201, 4-[3-(6,8-Difluoro-imidazo[1,2-a]pyridin-3-yl)-1-(2,2,2-trifluoro-ethyl)-1H-pyrazolo[4,3-c]pyridine-6-carbonyl]-1,4-diazepan-2-one]
2 | < 100 nM | < 1000 nM | O=C(c1cc2c(cn1)c(-c1cnc3ccccn13)nn2CC(F)(F)F)N1CCCCCC1 [Compound 55, Azepan-1-yl-[3-imidazo[1,2-a]pyridin-3-yl-1-(2,2,2-trifluoro-ethyl)-1H-pyrazolo[4,3-c]pyridin-6-yl]-methanone]
3 | < 100 nM | < 100 nM | O=C(c1cc2c(cn1)c(-c1cnc3c(F)cccn13)nn2CC(F)(F)F)N1CCCCCC1 [Compound 62, Azepan-1-yl-[3-(8-fluoro-imidazo[1,2-a]pyridin-3-yl)-1-(2,2,2-trifluoro-ethyl)-1H-pyrazolo[4,3-c]pyridin-6-yl]-methanone]
4 | < 100 nM | < 1000 nM | CCC1(O)C2CCC1CN(C(=O)c1cc3c(cn1)c(-c1coc4ccccc14)nn3CC(F)(F)F)C2 (stereo not drawn) [Compound 210, [3-Benzofuran-3-yl-1-(2,2,2-trifluoro-ethyl)-1H-pyrazolo[4,3-c]pyridin-6-yl]-(8-exo-ethyl-8-endo-hydroxy-3-aza-bicyclo[3.2.1]oct-3-yl)-methanone]
5 | < 100 nM | < 1000 nM | O=C(c1cc2c(cn1)c(-c1cnc3c(F)cc(F)cn13)nn2CC(F)(F)F)N1CCCC(CO)C1 (centres unmarked) [Compound 161, [3-(6,8-Difluoro-imidazo[1,2-a]pyridin-3-yl)-1-(2,2,2-trifluoro-ethyl)-1H-pyrazolo[4,3-c]pyridin-6-yl]-(3-hydroxymethyl-piperidin-1-yl)-methanone]
6 | < 100 nM | < 1000 nM | NC(=O)c1ccc2ncc(-c3nn(CC(F)(F)F)c4cc(C(=O)N5CC6CCC(C5)O6)ncc34)n2c1 [Compound 247, 3-[6-(8-Oxa-3-aza-bicyclo[3.2.1]octane-3-carbonyl)-1-(2,2,2-trifluoro-ethyl)-1H-pyrazolo[4,3-c]pyridin-3-yl]-imidazo[1,2-a]pyridine-6-carboxylic acid amide]
7 | < 100 nM | < 1000 nM | O=C(c1cc2c(cn1)c(-c1cnc3c(F)cc(F)cn13)nn2CC(F)(F)F)N1CCC(C(F)F)CC1 [Compound 173, [3-(6,8-Difluoro-imidazo[1,2-a]pyridin-3-yl)-1-(2,2,2-trifluoro-ethyl)-1H-pyrazolo[4,3-c]pyridin-6-yl]-(4-difluoromethyl-piperidin-1-yl)-methanone]
8 | < 100 nM | < 100 nM | CC1(O)CCN(C(=O)c2cc3c(cn2)c(-c2coc4ccc(F)cc24)nn3CC(F)(F)F)CC1 [Compound 116, [3-(5-fluorobenzofuran-3-yl)-1-(2,2,2-trifluoroethyl)pyrazolo[4,3-c]pyridin-6-yl]-(4-hydroxy-4-methyl-1-piperidyl)methanone]
9 | < 100 nM | < 1000 nM | O=C(c1cc2c(cn1)c(-c1cnc3c(F)cc(F)cn13)nn2CC(F)(F)F)N1CC2CC1CO2 (centres unmarked) [Compound 135, [3-(6,8-Difluoro-imidazo[1,2-a]pyridin-3-yl)-1-(2,2,2-trifluoro-ethyl)-1H-pyrazolo[4,3-c]pyridin-6-yl]-(2-oxa-5-aza-bicyclo[2.2.1]hept-5-yl)-methanone]
10 | < 100 nM | < 1000 nM | CC1(C)CC(O)CCN1C(=O)c1cc2c(cn1)c(-c1cnc3c(F)cc(F)cn13)nn2CC(F)(F)F (centres unmarked) [Compound 142, [3-(6,8-Difluoro-imidazo[1,2-a]pyridin-3-yl)-1-(2,2,2-trifluoro-ethyl)-1H-pyrazolo[4,3-c]pyridin-6-yl]-(4-hydroxy-2,2-dimethyl-piperidin-1-yl)-methanone]
11 | < 100 nM | < 1000 nM | Cc1oc2ccccc2c1-c1nn(CC(F)(F)F)c2cc(C(=O)N3CCCOCC3)ncc12 [Compound 126, [3-(2-methylbenzofuran-3-yl)-1-(2,2,2-trifluoroethyl)pyrazolo[4,3-c]pyridin-6-yl]-(1,4-oxazepan-4-yl)methanone]
12 | < 100 nM | < 100 nM | O=C(c1cc2c(cn1)c(-c1c[nH]c3ccccc13)nn2CC(F)(F)F)N1CCCCCC1 [Compound 91, Azepan-1-yl-[3-(1H-indol-3-yl)-1-(2,2,2-trifluoro-ethyl)-1H-pyrazolo[4,3-c]pyridin-6-yl]-methanone]
13 | < 100 nM | < 1000 nM | O=C(c1cc2c(cn1)c(-c1cnc3ccc(Cl)cn13)nn2CC(F)(F)F)N1CCCCCC1 [Compound 48, Azepan-1-yl-[3-(6-chloro-imidazo[1,2-a]pyridin-3-yl)-1-(2,2,2-trifluoro-ethyl)-1H-pyrazolo[4,3-c]pyridin-6-yl]-methanone]
14 | < 100 nM | < 1000 nM | CC1(CO)CCN(C(=O)c2cc3c(cn2)c(-c2cnc4c(F)cc(F)cn24)nn3CC(F)(F)F)CC1 [Compound 176, [3-(6,8-Difluoro-imidazo[1,2-a]pyridin-3-yl)-1-(2,2,2-trifluoro-ethyl)-1H-pyrazolo[4,3-c]pyridin-6-yl]-(4-hydroxymethyl-4-methyl-piperidin-1-yl)-methanone]
15 | < 100 nM | < 1000 nM | CC1(O)CCN(C(=O)c2cc3c(cn2)c(-c2coc4ccccc24)nn3CS(C)(=O)=O)CC1 [Compound 32, (3-Benzofuran-3-yl-1-methanesulfonylmethyl-1H-pyrazolo[4,3-c]pyridin-6-yl)-(4-hydroxy-4-methyl-piperidin-1-yl)-methanone]
16 | < 100 nM | < 1000 nM | O=C(c1cc2c(cn1)c(-c1cnc3c(F)cc(F)cn13)nn2CC(F)(F)F)N1CCCC(O)C1 (centres unmarked) [Compound 151, [3-(6,8-Difluoro-imidazo[1,2-a]pyridin-3-yl)-1-(2,2,2-trifluoro-ethyl)-1H-pyrazolo[4,3-c]pyridin-6-yl]-(3-hydroxy-piperidin-1-yl)-methanone]
17 | < 100 nM | < 100 nM | [2H]C1([2H])CCOCCN1C(=O)c1cc2c(cn1)c(-c1cnc3c(F)cc(F)cn13)nn2CC(F)(F)F [Compound 190, [3-(6,8-Difluoro-imidazo[1,2-a]pyridin-3-yl)-1-(2,2,2-trifluoro-ethyl)-1H-pyrazolo[4,3-c]pyridin-6-yl]-1,4-oxazepan-5,5-dideuterio-4-yl-methanone]
18 | < 100 nM | < 100 nM | O=C(c1cc2c(cn1)c(-c1cnc3ccc(F)cn13)nn2CC(F)(F)F)N1CCCCCC1 [Compound 44, Azepan-1-yl-[3-(6-fluoro-imidazo[1,2-a]pyridin-3-yl)-1-(2,2,2-trifluoro-ethyl)-1H-pyrazolo[4,3-c]pyridin-6-yl]-methanone]
19 | < 100 nM | < 1000 nM | C[C@@]1(O)C[C@H]2C[C@@H]1CN2C(=O)c1cc2c(cn1)c(-c1coc3ccccc13)nn2CS(C)(=O)=O (relative stereo) [Compound 31, (3-Benzofuran-3-yl-1-methanesulfonylmethyl-1H-pyrazolo[4,3-c]pyridin-6-yl)-(5-endo-hydroxy-5-exo-methyl-2-aza-bicyclo[2.2.1]hept-2-yl)-methanone]
20 | < 100 nM | < 1000 nM | CC1(C)CN(C(=O)c2cc3c(cn2)c(-c2cnc4c(F)cc(F)cn24)nn3CC(F)(F)F)CCCO1 [Compound 182, [3-(6,8-Difluoro-imidazo[1,2-a]pyridin-3-yl)-1-(2,2,2-trifluoro-ethyl)-1H-pyrazolo[4,3-c]pyridin-6-yl]-(2,2-dimethyl-1,4-oxazepan-4-yl)-methanone]
21 | < 100 nM | < 1000 nM | O=C(c1cc2c(cn1)c(-c1cnc3c(F)cc(F)cn13)nn2CC(F)(F)F)N1CCC2(CC1)COC2 [Compound 166, [3-(6,8-Difluoro-imidazo[1,2-a]pyridin-3-yl)-1-(2,2,2-trifluoro-ethyl)-1H-pyrazolo[4,3-c]pyridin-6-yl]-(2-oxa-7-aza-spiro[3.5]non-7-yl)-methanone]
22 | < 100 nM | < 1000 nM | O=C(c1cc2c(cn1)c(-c1cnc3c(F)cc(F)cn13)nn2CC(F)(F)F)N1CCC(O)C(F)(F)C1 (centres unmarked) [Compound 203, (3,3-Difluoro-4-hydroxy-piperidin-1-yl)-[3-(6,8-difluoro-imidazo[1,2-a]pyridin-3-yl)-1-(2,2,2-trifluoro-ethyl)-1H-pyrazolo[4,3-c]pyridin-6-yl]-methanone]
23 | < 100 nM | < 1000 nM | CC1(C)CC(O)CCN1C(=O)c1cc2c(cn1)c(-c1coc3ccccc13)nn2CS(C)(=O)=O (centres unmarked) [Compound 35, (3-Benzofuran-3-yl-1-methanesulfonylmethyl-1H-pyrazolo[4,3-c]pyridin-6-yl)-(4-hydroxy-2,2 dimethyl-piperidin-1-yl)-methanone]
24 | < 100 nM | < 1000 nM | O=C(c1cc2c(cn1)c(-c1nnc3ccccn13)nn2CC(F)(F)F)N1CCCCCC1 [Compound 71, Azepan-1-yl-[3-[1,2,4]triazolo[4,3-a]pyridin-3-yl-1-(2,2,2-trifluoro-ethyl)-1H-pyrazolo[4,3-c]pyridin-6-yl]-methanone]
25 | < 100 nM | < 1000 nM | N#CCn1nc(-c2coc3ccccc23)c2cnc(C(=O)N3CCCOCC3)cc21 [Compound 13, [3-Benzofuran-3-yl-6-(1,4-oxazepane-4-carbonyl)-pyrazolo[4,3-c]pyridin-1-yl]-acetonitrile]
